# According to patent US20260207551A1, “PHOSPHOGLICERATE DEHYDROGENASE INHIBITORS FOR THE TREATMENT OF FIBROSIS” (CHIESI FARMACEUTICI S.P.A., priority 2022, published 2026):
# Key:
# [1] = test system: αSMA; assay: Phenotypic assay: high content aSMA staining in NHLF cells; type: cell-based, Human; conditions: NHLF, 72 h incubation
# Experimental: NHLF cells (Lonza #CC2512) were seeded as 2000 cells/well in 384-well plates in MEM medium w/o serine and glycine (Sigma #M2279)+1% pen/strep+5 mM L-glutamine +10% FBS and incubated overnight at 37° C., 5% CO2.
# The next day, cells were washed with PBS and starvation MEM medium w/o serine and glycine (0% FBS) was added and cells were incubated overnight at 37° C., 5% CO2. The day after, cells were pre-incubated with compounds or vehicle (0.3% DMSO) for 1 h. Compounds were tested at 9 consecutive 3-fold dilutions starting from 30 μM. Each compound was tested in duplicate. Cells were further incubated for 72 h at 37° C., 5% CO2, 95% humidity. After 72 h of incubation, αSMA expression was quantified using immunostaining: • Fixation in 4% paraformaldehyde, • Blocking with 3% BSA, 2% FBS, 0.2% Triton-X in PBS, • Primary ab. anti-αSMA (AbCam #ab7817) diluted 500× in blocking buffer • Anti-mouse secondary ab. AF488 (ThermoFisher #A11029) • % of αSMA positive cells was determined by High Content Imaging (Molecular Device), data analysis was performed using MetaXpress software (Molecular Devices) and % of αSMA positive was further used to calculate % of inhibition for tested compounds. Total cell number was determined by Hoechst staining and % of viability over TGFβ stimulated controls was calculated.
# [2] = test system: NHLFs; assay: FBS induced proliferation of NHLFs (BrdU incorporation); type: cell-based, Human
# Experimental: (§1) Human normal lung fibroblasts (NHLFs) were purchased from Lonza (Basel, Switzerland). NHFLs were cultured in Eagle's Minimum Essential medium (EMEM) w/o serine and glycine, supplemented with 10% Fetal Bovine Serum (FBS), antibiotics (50 U/ml penicillin and 0.05 mg/ml streptomycin) and 2 mM L-glutamine, in an atmosphere of 95% air and 5% CO2 at 37° C. NHLFs cultures were used between passage 1 and 9. Before all the experiments, cells were incubated overnight in serum-free medium.
# The antiproliferative activity of compounds of the present invention has been monitored measuring the incorporation of bromodeoxyuridine (BrdU), a thymidine analog of DNA, in newly synthesized DNA after treatment in lung cells. Briefly, NHLFs were seeded in 96-well and treated with different concentrations of Compound 19 and NCT-503 in EMEM medium for 1 h followed by stimulation with Fetal Bovine Serum (FBS) for 72 h at 37° C., 5% CO2. After cell treatments, 10 μl/well BrdU labeling solution was added for incorporation in proliferating cells for 2 h at 37° C., 5% CO2. After removing the culture medium, the cells are fixed, and the DNA is denatured by adding FixDenat followed by incubation with 100 μl/well Anti-BrdU-POD for detection. The reaction product is quantified by measuring the absorbance at the respective wavelength using a scanning multiwell spectrophotometer (ELISA reader).
# [3] = test system: collagen I (Col-I); assay: TGF-b induced Collagen I expression in NHLFs (Western blot); type: cell-based, Human; conditions: NHLF
# Source text: (§2) The antifibrotic activity of compounds of the present invention has been monitored measuring the expression of fibrotic mediators, collagen I (Col-I) and alpha smooth muscle actin (α-SMA) after treatment in lung cells with TGF-β in comparison with Nintedanib (see Frank Hilberg et al, Cancer Res 2008 Jun. 15; 68(12):4774-82), and allosteric inhibitor NCT-503 (see Hamanaka et al., Am J Respir Cell Mol Biol. 2018 May; 58(5):585-593).
# as §1
# NHLFs were seeded in 12-well plates at cultured until 70% of confluency. To examine the expression of fibrotic markers, cells were treated with different concentrations of Compounds and NCT-503 in EMEM medium for 1 h followed by stimulation with TGF-β for 48 h at 37° C., 5% CO2. […] Detection and quantification were performed with Odyssey imaging system (Li-cor) using GAPDH as loading control.
# [4] = test system: alpha smooth muscle actin (α-SMA); assay: TGF-b induced α-SMA expression in NHLFs (Western blot); type: cell-based, Human; conditions: NHLF, TGF-β (10 ng/ml) 48 h
# Source text: as §2, §1
# NHLFs were seeded in 12-well plates at cultured until 70% of confluency. To examine the expression of fibrotic markers, cells were treated with different concentrations of Compounds and NCT-503 in EMEM medium for 1 h followed by stimulation with TGF-β for 48 h at 37° C., 5% CO2. Following cell treatments, medium was removed and whole cell extracts were prepared by directly adding to the well the 1× loading buffer (125 mM Tris-HCl pH 6.8, 4% SDS, 0.2% Orange G, 50% glycerol, 2.5% β-mercaptoethanol, Li-cor Biosciences), boiled for 5 min and then electrophoresed on Mini protean TGX gel 4-12% (Biorad). After electrophoresis, proteins were transferred to a nitrocellulose membrane. Immunodetection of Col-I, α-SMA and glyceraldeide 3-phosphate dehydrogenase (GAPDH) were obtained by using mouse anti-CollA1 (Santacruz), mouse anti-α-SMA (sigma) and rabbit anti-GAPDH (Cell Signaling Technology) all diluted at 1:1000 in TBS-tween 0.1%. […] Detection and quantification were performed with Odyssey imaging system (Li-cor) using GAPDH as loading control.
# [5] = test system: bleomycin-induced pulmonary fibrosis; assay: Bleomycin-induced pulmonary fibrosis in male mice (Example 5)
# Experimental: Male C57BL6/J mice (7-8 weeks old) were purchased from the Envigo RMS (San Pietro al Natisone (UD), Italy). All mice were maintained under pathogen-free conditions and were provided food and water ad libitum.
# Lung injury was induced by double oropharyngeal instillation of Bleomycin hydrochloride (BLM, BAXTER) at day 0 and day 4 at the doses of 0.02 U/mouse in 50 μl of saline solution (0.9%). Control animals received double oropharyngeal instillation of 50 μl of saline solution.
# Compound 19 was orally administered twice daily, starting on day 7 after the first oropharyngeal administration of bleomycin at the two doses of 400 and 600 mg/kg/day, 10 ml/kg, dissolved in 0.5% Tween 80, 0.5% Methylcellulose in H2O and treatment lasted for two weeks.
# A group of animals was treated with Nintedanib esylate salt, at the dose of 60 mg/kg/day, 10 ml/kg, once daily, to compare the efficacy of the test compounds with an FDA approved drug for the treatment of IPF patients. Control mice were given vehicle-only over the same time intervals. Weight of all animals has been assessed twice a week starting from day 0 until day 21.
# On days 21, mice were anesthetized by intraperitoneal injection of thiopental (200 mg/kg/10 ml; pentothal sodium, MSD Animal Health Srl). Blood was withdrawn by cardiac puncture and collected in heparine tubes. Plasma was obtained after centrifugation of blood at 10,000 g for 10 min. Lungs were lavage with saline solution through the heart, formalin fixed and paraffin embedded, and sections were stained with Masson's Trichrome to evaluate the grade and severity of fibrosis and collagen deposition.
# Masson's Trichrome stained slides were also scanned with NanoZoomer S60 (Hamamatsu Photonics K.K., Shizuoka, Japan) and acquired into the Visiopharm Integrator System (VIS; version 2017.2.4.3387) for a quantification of pulmonary fibrosis by automated analysis with the support of a VIS Analysis Protocol Package (APP). The present APP has been designed to identify and then quantify the fibrotic tissue, detecting accumulation of altered connective tissue, excess of collagen deposition and cellular density.
# To quantify lung protein content and the levels of specific proteins as markers of fibrosis and collagen deposition, lungs from subgroups of animals were weighted, homogenized in Phosphate buffer solution (PBS) and proteins of interest were quantified by immunometric or colorimetric assays. Hydroxyproline content was determined using the Hydroxyproline Colorimetric Assay Kit (Sigma MAK008, USA) according to the manufacturer's protocol. WISP-1, CollagenI, pro-CollagenI and Elastin were determined by Elisa kits. Protein quantification was performed using DC Protein Assay (Bio-Rad Laboratories, Italy). Plasma serine levels were measured using the DL-Serine Assay Kit (Abcam, Cambridge, MA).
structure (smiles),measurement,setting,value
"CC(C)C(C(=O)O)c1ccc(C2(NC(=O)c3cc4c(Cl)c(Cl)ccc4n3C)CCOC2)cc1 (racemic) [Compound 19, (±)-2-(4-(3-(4,5-Dichloro-1-methyl-1H-indole-2-carboxamido)tetrahydro-furan-3-yl)phenyl)-3-methylbutanoic acid]",aSMA pIC50,[1],5.9
same,IC50,"[2]; Homo sapiens, NHLF, FBS 72 h, confidence interval in brackets, NA: not active, read-out: FBS induced proliferation (pIC50-C.I.) (converted)",631 nM
same,cell proliferation induced by serum treatment (FIG. 3),"[2]; NHLFs, 72 h",able to reduce the cell proliferation
same,IC50,"[3]; Homo sapiens, TGF-β 48 h, confidence interval in brackets, read-out: TGF-b induced Collagen I (pIC50-C.I.) (converted)",31.6 nM
same,"FMT induced by TGF-β, Collagen protein expression (FIG. 1)",[3],decrease of Collagen protein expression
same,"inhibition of release of α-SMA (comparison, FIG. 2)",[4]; Compound 19 50 uM vs NCT-503 50 uM and Nintedanib 1 uM,in a more efficacious manner than the NCT-503 (50 uM) and even more than the Nintedanib (1 uM)
same,inhibition at 50 µM,"[4]; Homo sapiens, 50 uM, read-out: TGF-b induced a-sma (% inh. 50 uM)",97%
same,circulating serine levels in plasma,[5]; 400 and 600 mg/kg/day,significant reduction at both doses
same,reduction of lung/body weight,"[5]; Compound 19 highest dose (600 mg/kg/day), Nintedanib esylate 60 mg/kg/day, not significant",−31%
same,body weight during 2-weeks of treatment,[5]; compared to BLM/Vehicle treated group,did not lose additional weight
same,Ashcroft score (FIG. 11A),[5]; day 21,reduced
same,"collagen content (automatic collagen deposition quantification, FIG. 13)",[5]; day 21,reached statistical significance with the highest dose
same,frequency of Ashcroft score classes (FIG. 11B),[5]; day 21,reduced the frequency of the most severe scores of fibrosis
same,reduction of tissue area occupied by fibrotic lesions (automated analysis),[5]; day 21,~25%
same,"severity of fibrosis (automated analysis, FIG. 12)",[5]; day 21,significant reduction of severity of fibrosis
same,deaths during treatment,"[5]; highest tested dose (600 mg/kg/day), two animals died in BLM/Vehicle group",only one animal died
same,"lung levels of Hydroxyproline, Collagen I and WISP-1",[5]; lung homogenates,significantly reduced
